Experimental findings from patent US9061984B2 (University of Louisville Research Foundation, Inc., priority 2008, dated 2015) are described below.

Series [1] concerns axenic amastigotes of L. amazonensis (strain MHOM/BR/76/LTB-012). Put plainly: microbe, parasite or virus in culture. Conditions: Leishmania amazonensis.
Series [2] can be described thus: Toxicity to peritoneal macrophages (Trypan Blue count). It counts as cell-based, BALB/C mouse. The following applies: BALB/C, mouse.
Series [3] deals with M. tuberculosis H37Rv. The experiment in a line: Conventional aerobic (MABA) culture assay, luminescence MIC. It counts as cell-based, Mycobacterium tuberculosis. The following applies: for MIC: Mycobacterium tuberculosis, 168 h, aerobic, 7 days, H37Rv; for Selectivity Index H37Rv: VERO vs MABA MIC. On the technique in general: Resazurin is reduced to fluorescent resorufin, in cell work by metabolically active cells.

In series [4] the test system is M. tuberculosis MDR. Put plainly: Anti-tuberculosis bioassay (tetrazolium microplate MIC). It counts as cell-based. The following applies: Mycobacterium tuberculosis, read-out: Mycobacterium MIC MDR.
For series [5], the system named is M. tuberculosis H37Rv. Described as above. It counts as cell-based. Conditions: Mycobacterium tuberculosis, read-out: Mycobacterium MIC H37Rv, Table 5.
Series [6] has as its system VERO cells. The experiment in a line: Cell growth inhibition bioassay (sulforhodamine B). The following applies: Chlorocebus sabaeus, Vero; 48 h, SRB; read-out: GI50 in indicated cell line: VERO. It counts as cell-based, African Green Monkey. The gist of the method: (§1)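 Cells were exposed to compound alongside matched solvent controls, then stained with sulforhodamine B. Percent growth inhibition was calculated from dye absorbance against the control.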

The subject of series [7] is axenic amastigotes of L. amazonensis (strain MHOM/BR/76/LTB-012). Conditions: Table 8b.
The nature of series [8]: Cytotoxicity on VERO cells (MTT), anti-T. cruzi study. The following applies: African green monkey, VERO cells.
The subject of series [9] is 3T3 cells. The experiment in a line: Cell growth inhibition bioassay (sulforhodamine B). It counts as cell-based, mouse. The following applies: Mus musculus, NIH3T3; 48 h, SRB; read-out: GI50 in indicated cell line: 3T3. In short, it runs like this: as §1
Series [10] relates to MCF-7 cells. The experiment in a line: Cell growth inhibition bioassay (sulforhodamine B). It counts as cell-based, human. Conditions: Homo sapiens, MCF7; 48 h, SRB; read-out: GI50 in indicated cell line: MCF-7. In short, it runs like this:
(§2)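 SRB colorimetric read-out; % growth inhibition vs solvent control. Human lines: MCF-7 (breast adenocarcinoma), DU145 (prostate carcinoma), PC3 (prostate adenocarcinoma), H460 (large cell lung cancer).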

The subject of series [11] is DU145 cells. Put plainly: Cell growth inhibition bioassay (sulforhodamine B). It counts as cell-based, human. Conditions: Homo sapiens, DU-145; 48 h, SRB; read-out: GI50 in indicated cell line: DU145. The gist of the method:
as §2

The subject of series [12] is K562 cells. The experiment in a line: Cell growth inhibition bioassay (sulforhodamine B). Conditions: Homo sapiens, K562; 48 h, SRB; read-out: GI50 in indicated cell line: K562. It counts as cell-based, human. In short, it runs like this: as §1
The test system of series [13] is M-14 cells. The experiment in a line: Cell growth inhibition bioassay (sulforhodamine B). It counts as cell-based, human. Conditions: Homo sapiens, M14; 48 h, SRB; read-out: GI50 in indicated cell line: M-14. In short, it runs like this:
as §1

The test system of series [14] is HT-29 cells. The experiment in a line: Cell growth inhibition bioassay (sulforhodamine B). It counts as cell-based, human. Conditions: Homo sapiens, HT-29; 48 h, SRB; read-out: GI50 in indicated cell line: HT-29. In short, it runs like this:
as §1

Series [15] relates to H460 cells. The experiment in a line: Cell growth inhibition bioassay (sulforhodamine B). It counts as cell-based, human. Conditions: Homo sapiens, NCI-H460; 48 h, SRB; read-out: GI50 in indicated cell line: H460. In short, it runs like this:
as §1

A short description of series [16]: Cytotoxicity VERO cell (Table 6). The following applies: African green monkey, VERO cells.
Series [17] concerns Trypanosoma cruzi (Tulahuen C4). The experiment in a line: In vitro anti-T. cruzi activity (β-galactosidase CPRG colorimetric assay in VERO monolayer). It counts as cell-based. The following applies: for Selectivity Index Lab B: IC50, VERO/IC50, T. cruzi; for inhibition at 10 µg/mL / IC50: Trypanosoma cruzi, TULAHUEN, Vero; for inhibition at 10 µg/mL: 120 h, 10 μg/mL of each compound, 120 hours, read-out: T. cruzi Inhib. (%).

Series [18] concerns non-replicating persistence Mycobacterium tuberculosis (NRP-TB). Put plainly: Low oxygen recovery assay (LORA). It counts as cell-based. Conditions: value in brackets.
Where [19] appears, read: read-out: IC50 Cytotoxicity Against Amastigotes.
Setting [20] is: IC50 - VERO Cytotoxicity, Table 2.
The mark [21] stands for this setting: Lab A, read-out: T. cruzi IC50 Lab A.
The mark [22] stands for this setting: Lab B, read-out: T. cruzi IC50 Lab B.
The mark [23] stands for this setting: Table 2, read-out: IC50 - T. cruzi.

Molecules are shown by their SMILES. In brackets after ≈: the same amount, converted by molar mass. Like-named read-outs stand apart in the source and are kept apart here.

As to `C(=N/Nc1ncnc2sc3c(c12)CCCC3)/c1ccccc1` [II-01], the IC50 (as a rule, the midpoint of a concentration-inhibition curve) was 3.2 µM in series [1] (setting [19]); 13.5 µM in series [1] (read-out: L. amazonensis IC50); 8 µg/mL (≈ 25.9 µM) in [8] (Cytotoxicity VERO Lab B, Lab B); 29 µg/mL (≈ 94 µM) in series [8] (setting [20]); 11.1 µg/mL (≈ 36 µM) in series [16]; 1.9 µg/mL (≈ 6.16 µM) in series [17] (setting [21]). For the same compound, the IC50 in series [17] (setting [22]) is 4.4 µg/mL (≈ 14.3 µM); in series [17] (setting [23]), 3.92 µg/mL (≈ 12.7 µM). The compound further gave an IC50 at 48 h in series [2] (Cytotoxicity Macrophages IC50) of 8.7 µM. For the same compound, the minimal inhibitory concentration (MIC) (in general, the smallest concentration in the dilution series that meets the test's criterion for growth inhibition) was 23.4 µg/mL (≈ 75.9 µM) in series [3], 6.25 µg/mL (≈ 20.3 µM) in [4] and 6.25 µg/mL (≈ 20.3 µM) in series [5]. Further, the “Selectivity Index H37Rv” value in series [3] worked out at 0.5. Moreover, the GI50 – broadly, the concentration that inhibits growth by half – worked out at 5.3 µg/mL (≈ 17.2 µM) in series [6]; 6.7 µg/mL (≈ 21.7 µM) in series [9]; 3.5 µg/mL (≈ 11.3 µM) in series [10]; 6.2 µg/mL (≈ 20.1 µM) in [11]; 4.1 µg/mL (≈ 13.3 µM) in series [12]; 5.6 µg/mL (≈ 18.2 µM) in series [13]. Also, the GI50 amounted to 3.8 µg/mL (≈ 12.3 µM) in [14] and 5.6 µg/mL (≈ 18.2 µM) in series [15]. In addition, in series [7], the “Selectivity Index” value was 0.6. The “Selectivity Index Lab B” value in series [17] (Lab B) was found to be 1.8. Also, in [17], the inhibition at 10 µg/mL is 80.1%.

As to `COc1ccc(/C=N\Nc2ncnc3sc4c(c23)CCCC4)cc1` [II-10], the IC50 in [1] (read-out: L. amazonensis IC50) was found to be 16.1 µM; in series [8] (Cytotoxicity VERO Lab B, Lab B), 6 µg/mL (≈ 17.7 µM); in series [16], 76.7 µg/mL (≈ 227 µM); in [17] (setting [22]) it was 5.4 µg/mL (≈ 16 µM). In series [2] (Cytotoxicity Macrophages IC50), this compound had an IC50 at 48 h of 21.6 µM. Moreover, the MIC in series [3] turned out to be 24.1 µg/mL (≈ 71.2 µM); in series [18] (Mycobacterium tuberculosis, anaerobic 10 days, 28 hour recovery), 9.1 µg/mL (≈ 26.9 µM). Also, the “Selectivity Index H37Rv” value in [3] amounted to 3.2. Moreover, the GI50 in [6] came out at 6.4 µg/mL (≈ 18.9 µM); in [9], 5 µg/mL (≈ 14.8 µM); in series [10] it was 4.2 µg/mL (≈ 12.4 µM); in series [11], 7.8 µg/mL (≈ 23 µM); in series [12], 4.7 µg/mL (≈ 13.9 µM); in series [13] it was 5.5 µg/mL (≈ 16.3 µM). Also, the GI50 in [14] came out at 5.9 µg/mL (≈ 17.4 µM); in series [15], 5.8 µg/mL (≈ 17.1 µM). The “Selectivity Index” value in [7] is on record as 1.3. Further, the “Selectivity Index LORA” value in [18] (VERO vs LORA MIC) is recorded as 8.5. Besides, in series [17] (Lab B), the “Selectivity Index Lab B” value is reported as 1.1.

Turning to `COc1cc(/C=N\Nc2ncnc3sc4c(c23)CCCC4)cc(OC)c1OC` [II-14], the IC50 in [1] (setting [19]) was 10.5 µM; in series [1] (read-out: L. amazonensis IC50), 2.9 µM; in series [8] (Cytotoxicity VERO Lab B, Lab B), 11 µg/mL (≈ 27.6 µM); in [17] (setting [21]), 3 µg/mL (≈ 7.53 µM). The IC50 at 48 h in series [2] (Cytotoxicity Macrophages IC50) was 3.6 µM; in series [2] (IC50 Cytotoxicity Against Macrophages), greater than 10 µM. Besides, the MIC is greater than 100 µg/mL in series [3], greater than 25 µg/mL in series [4] and greater than 25 µg/mL in series [5]. Further, the GI50 amounted to 9.7 µg/mL (≈ 24.3 µM) in series [6]; 9 µg/mL (≈ 22.6 µM) in series [9]; 4.2 µg/mL (≈ 10.5 µM) in series [10]; 9 µg/mL (≈ 22.6 µM) in series [11]; 1.9 µg/mL (≈ 4.77 µM) in series [12]; 6.2 µg/mL (≈ 15.6 µM) in series [13]. In addition, the 50% growth inhibitory concentration (GI50) came to 4.6 µg/mL (≈ 11.5 µM) in series [14] and 11.3 µg/mL (≈ 28.4 µM) in series [15]. For the same compound, the “Selectivity Index” value in [7] turned out to be 1.2. Moreover, the inhibition at 10 µg/mL in [17] was found to be 2%.

As for `COc1cc(/C=N\Nc2ncnc3sc4c(c23)CCCC4)cc(OC)c1O` [II-16], the IC50 was 21.9 µM in [1] (setting [19]); 15.7 µM in [1] (read-out: L. amazonensis IC50); 124 µg/mL (≈ 323 µM) in series [8] (setting [20]); 4.9 µg/mL (≈ 12.7 µM) in series [17] (setting [21]); 8.74 µg/mL (≈ 22.7 µM) in [17] (setting [23]). In [2] (Cytotoxicity Macrophages IC50), this compound returned a half-inhibitory concentration (IC50) at 48 h of 46.4 µM. Moreover, the minimal inhibitory concentration (MIC) in series [3] is greater than 100 µg/mL; in [4], greater than 25 µg/mL; in series [5] it was greater than 25 µg/mL. The GI50 in series [6] is greater than 62.5 µg/mL; in [9], 10.5 µg/mL (≈ 27.3 µM); in series [10], greater than 62.5 µg/mL; in series [11] it was 10.5 µg/mL (≈ 27.3 µM); in [12], greater than 62.5 µg/mL; in series [13], greater than 62.5 µg/mL. Further, the GI50 in [14] and in [15] was greater than 62.5 µg/mL each time. The “Selectivity Index” value in [7] is listed as 3.0. Further, the inhibition at 10 µg/mL in series [17] was 58.6%.
